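A five-concentration, 48-hour dose response in 96-well plates underlies each endpoint, interpolated linearly between surrounding concentrations. GI50 = concentration required for 50% inhibition of growth. Definition used: TGI = concentration required for complete inhibition of growth.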
Tests used:
Assay in all cases: DTP human tumour cell line panel, 48 h
A498 renal = tested on: A498 renal
DMS 114 small cell lung = tested on: DMS 114 small cell lung
M19-MEL melanoma = tested on: M19-MEL melanoma
MOLT-4 leukemia = tested on: MOLT-4 leukemia
SK-MEL-28 melanoma = tested on: SK-MEL-28 melanoma
SN12C renal = tested on: SN12C renal
SNB-78 CNS = tested on: SNB-78 CNS
TK-10 renal = tested on: TK-10 renal
XF 498 CNS = tested on: XF 498 CNS
SR leukemia = tested on: SR leukemia
PC-3 prostate = tested on: PC-3 prostate
T-47D breast = tested on: T-47D breast

Row | SMILES | TGI (A498 renal) [µM] | TGI (DMS 114 small cell lung) [µM] | TGI (M19-MEL melanoma) [µM] | TGI (MOLT-4 leukemia) [µM] | TGI (SK-MEL-28 melanoma) [µM] | TGI (SN12C renal) [µM] | TGI (SNB-78 CNS) [µM] | TGI (TK-10 renal) [µM] | TGI (XF 498 CNS) [µM] | TGI (SR leukemia) [µM] | GI50 (A498 renal) [µM] | GI50 (MOLT-4 leukemia) [µM] | GI50 (PC-3 prostate) [µM] | TGI (PC-3 prostate) [µM] | GI50 (SK-MEL-28 melanoma) [µM] | GI50 (SN12C renal) [µM] | GI50 (SR leukemia) [µM] | GI50 (T-47D breast) [µM] | TGI (T-47D breast) [µM] | GI50 (TK-10 renal) [µM]
1 | CCOc1ccc(N=C2NC(=O)C(CC(=O)Nc3ccc(Cl)cc3Cl)S2)cc1 (centres undefined) | > 100 | > 100 | > 100 | > 100 | > 100 | > 100 | > 100 | > 100 | > 100 | – | – | – | – | – | – | – | – | – | – | –
2 | O=[N+]([O-])c1cccc(C=NC23CC4CC(CC(C4)C2)C3)c1 | > 100 | > 100 | > 100 | > 100 | > 100 | > 100 | > 100 | > 100 | > 100 | – | – | – | – | – | – | – | – | – | – | –
3 | CNC(=O)N(CCCC(NC(C)=O)C(=O)NCc1ccccc1)Cc1ccccc1 (centres undefined) | > 100 | > 100 | > 100 | > 100 | > 100 | > 100 | > 100 | > 100 | > 100 | – | – | – | – | – | – | – | – | – | – | –
4 | COC(=O)CCC(=O)C(CC(=O)OC)C(=O)CCC(=O)NCCc1ccccc1 (centres undefined) | > 100 | – | – | > 100 | > 100 | > 100 | > 100 | > 100 | – | > 100 | – | – | – | – | – | – | – | – | – | –
5 | c1ccc2c(CNCCCN3CCN(CCCNCc4cccc5ccccc45)CC3)cccc2c1 | 22.9 | 3.46 | 3.37 | 2.92 | 3.06 | 13.5 | 4.59 | 2.95 | 3.17 | – | – | – | – | – | – | – | – | – | – | –
6 | Cc1ccc(NC(=O)CC2SC(=Nc3cccc(Cl)c3C)NC2=O)cc1 (centres undefined) | > 100 | 96.6 | > 100 | > 100 | > 100 | > 100 | > 100 | > 100 | > 100 | – | – | – | – | – | – | – | – | – | – | –
7 | N#CCC(=O)N/N=C(/C(=O)Nc1ccccc1)C1C(=O)N(c2ccccc2)N=C1N (centres undefined) | > 100 | > 100 | > 100 | > 100 | > 100 | > 100 | > 100 | > 100 | > 100 | > 100 | – | – | – | – | – | – | – | – | – | –
8 | CN(CC(=O)O)S(=O)(=O)c1ccc(Cl)cc1 | > 100 | – | > 100 | > 100 | > 100 | > 100 | – | > 100 | > 100 | – | – | – | – | – | – | – | – | – | – | –
9 | Cc1ccc(S(=O)OC2c3ccccc3Cc3ccccc32)cc1 (centres undefined) | 42.8 | 34.8 | 40.8 | 75.7 | 33.8 | 49.6 | 46.1 | 64.3 | 30.3 | 70.8 | – | – | – | – | – | – | – | – | – | –
10 | Cc1cc2c(=O)cc(-c3ccc(O)cc3)oc2c(C(=O)O)c1C | – | > 100 | > 100 | > 100 | > 100 | > 100 | > 100 | > 100 | > 100 | > 100 | – | – | – | – | – | – | – | – | – | –
11 | CC(=O)OC1C(COC(N)=O)OC(n2c(-c3ccc(C)cc3)cc(-c3ccccc3)c(C#N)c2=O)C(OC(C)=O)C1OC(C)=O (centres undefined) | > 100 | – | > 100 | > 100 | > 100 | > 100 | > 100 | > 100 | – | > 100 | – | – | – | – | – | – | – | – | – | –
12 | S=C1NC(c2ccccc2)=NC(Cc2ccccc2)(c2ccccc2)N1c1ccccc1 (centres undefined) | > 100 | > 100 | > 100 | > 100 | > 100 | > 100 | > 100 | > 100 | – | > 100 | – | – | – | – | – | – | – | – | – | –
13 | CCOC(=O)c1sc(Nc2cc(Cl)ccc2Cl)nc1C | > 100 | > 100 | > 100 | > 100 | > 100 | > 100 | > 100 | > 100 | > 100 | > 100 | – | – | – | – | – | – | – | – | – | –
14 | OCC(O)COc1ccc(F)cc1 (centres undefined) | > 100 | > 100 | > 100 | > 100 | > 100 | > 100 | > 100 | > 100 | > 100 | > 100 | – | – | – | – | – | – | – | – | – | –
15 | Cc1ccc(C)c(N2C(=O)C(=O)C(c3nc4ccccc4s3)C(=O)C2=O)c1 | > 100 | > 100 | > 100 | > 100 | > 100 | > 100 | > 100 | > 100 | – | – | – | – | – | – | – | – | – | – | – | –
16 | NNC(=S)N/N=C/c1ccccn1 | 9.01 | – | – | > 100 | > 100 | > 100 | – | > 100 | – | 90.1 | 1.82 | 3.34 | 5.62 | > 100 | 4.47 | 2.61 | 0.884 | 2.44 | > 100 | 1.96
17 | CC(=O)N[C@@H](Cc1ccc(OP(=O)(O)O)cc1)C(=O)N[C@H]1CCC(=O)N2CCC[C@@H](C(=O)NCc3cccc4ccccc34)N2C1=O | > 25 | – | – | > 25 | > 25 | > 25 | – | > 25 | – | > 25 | > 25 | > 25 | > 25 | > 25 | > 25 | > 25 | > 25 | > 25 | > 25 | > 25
18 | CC(=O)Nc1ccc(S(=O)(=O)N/N=C/c2cc(I)cc([N+](=O)[O-])c2O)cc1 | > 100 | > 100 | > 100 | > 100 | 98.7 | > 100 | > 100 | > 100 | 74.6 | – | – | – | – | – | – | – | – | – | – | –
19 | OC1CCC(COC(c2ccccc2)(c2ccccc2)c2ccccc2)O1 (centres undefined) | 35.8 | – | – | 35.2 | 33.4 | 38.6 | – | > 10 | – | > 10 | – | – | – | 24.3 | – | – | – | – | 38.2 | –
20 | O=C(CSc1nc2ccc([N+](=O)[O-])cc2[nH]1)Nc1ccc([N+](=O)[O-])cc1 | 3.8 | – | – | > 32.3 | 14.2 | 10.6 | – | 11 | – | > 46.4 | 1.34 | 2.81 | 2.38 | 12.5 | 2.82 | 2.26 | 3.15 | 1.59 | 12.9 | 3.47
21 | O=C(Cc1c(C(=O)Nc2ccccc2)sc(C(=O)Nc2ccccc2)c1CC(=O)Nc1ccccc1)Nc1ccccc1 | > 100 | > 100 | > 100 | – | 19.8 | > 100 | > 100 | > 100 | > 100 | – | – | – | – | – | – | – | – | – | – | –
22 | C#CCOCCCC(=O)O | > 100 | – | – | > 100 | > 100 | > 100 | – | > 100 | – | > 100 | – | – | – | > 100 | – | – | – | – | > 100 | –
